Data as given in ChEMBL document CHEMBL3044763, “Inhibitory Activities of Rhodanine Derivatives on Plant Growth” (Biosci Biotechnol Biochem, 1996).

What was measured:
[1] = system: Brassica rapa subsp. oleifera; experiment: Growth inhibition of Brassica rapa subsp. oleifera assessed as chlorophyll b level at 1 x 10^-4 M after 7 days; assay type: functional; set-up: scale not given: the % may be the effect or the level left
[2] = system: Brassica rapa subsp. oleifera; experiment: Growth inhibition of Brassica rapa subsp. oleifera assessed as total chlorophyll level at 5 x 10^-5 M after 7 days; assay type: functional; set-up: scale not given: the % may be the effect or the level left
[3] = system: Brassica rapa subsp. oleifera; experiment: Growth inhibition of Brassica rapa subsp. oleifera assessed as root growth at 5 x 10^-5 M after 7 days; assay type: functional
[4] = system: Brassica rapa subsp. oleifera; experiment: Growth inhibition of Brassica rapa subsp. oleifera assessed as chlorophyll a level at 1 x 10^-4 M after 7 days; assay type: functional; set-up: scale not given: the % may be the effect or the level left
[5] = system: Brassica rapa subsp. oleifera; experiment: Growth inhibition of Brassica rapa subsp. oleifera assessed as chlorophyll b level at 5 x 10^-5 M after 7 days; assay type: functional; set-up: scale not given: the % may be the effect or the level left
[6] = system: Brassica rapa subsp. oleifera; experiment: Growth inhibition of Brassica rapa subsp. oleifera assessed as chlorophyll b level at 3 x 10^-4 M after 7 days; assay type: functional; set-up: scale not given: the % may be the effect or the level left
[7] = system: Brassica rapa subsp. oleifera; experiment: Growth inhibition of Brassica rapa subsp. oleifera assessed as chlorophyll a level at 3 x 10^-5 M after 7 days; assay type: functional; set-up: scale not given: the % may be the effect or the level left
[8] = system: Brassica rapa subsp. oleifera; experiment: Growth inhibition of Brassica rapa subsp. oleifera assessed as root growth at 3 x 10^-4 M after 7 days; assay type: functional
[9] = system: Brassica rapa subsp. oleifera; experiment: Growth inhibition of Brassica rapa subsp. oleifera assessed as chlorophyll a level at 3 x 10^-4 M after 7 days; assay type: functional; set-up: scale not given: the % may be the effect or the level left
[10] = system: Brassica rapa subsp. oleifera; experiment: Growth inhibition of Brassica rapa subsp. oleifera assessed as chlorophyll b level at 3 x 10^-5 M after 7 days; assay type: functional; set-up: scale not given: the % may be the effect or the level left
[11] = system: Brassica rapa subsp. oleifera; experiment: Growth inhibition of Brassica rapa subsp. oleifera assessed as chlorophyll a level at 5 x 10^-5 M after 7 days; assay type: functional; set-up: scale not given: the % may be the effect or the level left
[12] = system: Brassica rapa subsp. oleifera; experiment: Growth inhibition of Brassica rapa subsp. oleifera assessed as total chlorophyll level at 1 x 10^-4 M after 7 days; assay type: functional; set-up: scale not given: the % may be the effect or the level left
[13] = system: Brassica rapa subsp. oleifera; experiment: Growth inhibition of Brassica rapa subsp. oleifera assessed as total chlorophyll level at 3 x 10^-4 M after 7 days; assay type: functional; set-up: scale not given: the % may be the effect or the level left
[14] = system: Brassica rapa subsp. oleifera; experiment: Growth inhibition of Brassica rapa subsp. oleifera assessed as total chlorophyll level at 3 x 10^-5 M after 7 days; assay type: functional; set-up: scale not given: the % may be the effect or the level left
[15] = system: Brassica rapa subsp. oleifera; experiment: Growth inhibition of Brassica rapa subsp. oleifera assessed as root growth at 1 x 10^-4 M after 7 days; assay type: functional
[16] = Toxicity in ip dosed Mus musculus ddY (mouse) assessed as mortality after 1 to 7 days; assay type: organism-based; conditions: in vivo
[17] = system: Brassica rapa subsp. oleifera; experiment: Growth inhibition of Brassica rapa subsp. oleifera assessed as root growth at 3 x 10^-5 M after 7 days; assay type: functional

| Structure (SMILES) | Activity [1] | Activity [2] | Root length [3] | Activity [4] | Activity [5] | Activity [6] | Activity [7] | Activity [8] | Activity [9] | Activity [10] | Activity [11] | Activity [12] | Activity [13] | Activity [14] | Activity [15] | LD50 [16] | Root length [17] |
| --- | --- | --- | --- | --- | --- | --- | --- | --- | --- | --- | --- | --- | --- | --- | --- | --- | --- |
| CC(=O)NN1C(=O)CSC1=S [N-ACETYLAMINORHODANINE] | 5.41% | 17.47% | 46.5 mm | 10.84% | 5.99% | 4.23% | 13.68% | 39.3 mm | 9.35% | 6.65% | 11.5% | 16.24% | 13.58% | 20.31% | 47.4 mm | > 1000 mg/kg | 47 mm |
| O=C(NN1C(=O)CSC1=S)c1ccccc1 [N-BENZOYLAMINORHODANINE] | 6.15% | 19.54% | 73.3 mm | 11.46% | 6.12% | 3.1% | 14.44% | 19.2 mm | 6.53% | 6.82% | 13.43% | 17.6% | 9.62% | 21.24% | 33.8 mm | > 1000 mg/kg | 79.6 mm |
